Patent US7786141B2 (Vertex Pharmaceuticals Incorporated, priority 2004, dated 2010)

Key:
[1] = biological target: T1, M4 muscarinic receptor (Homo sapiens, UniProt P08173); assay: Functional mobilization of intracellular calcium (FLIPR) in M4-CHO cells; assay type: cell-based; settings: Table 4; for Emax: 100% efficacy is the maximum response obtained with the Carbachol control; for M4 Activity: modulating M4 receptor
T1 construct: expressed in transfected cells; host or cells: CHO (M4-CHO)
T1 sequence (P08173 1-479): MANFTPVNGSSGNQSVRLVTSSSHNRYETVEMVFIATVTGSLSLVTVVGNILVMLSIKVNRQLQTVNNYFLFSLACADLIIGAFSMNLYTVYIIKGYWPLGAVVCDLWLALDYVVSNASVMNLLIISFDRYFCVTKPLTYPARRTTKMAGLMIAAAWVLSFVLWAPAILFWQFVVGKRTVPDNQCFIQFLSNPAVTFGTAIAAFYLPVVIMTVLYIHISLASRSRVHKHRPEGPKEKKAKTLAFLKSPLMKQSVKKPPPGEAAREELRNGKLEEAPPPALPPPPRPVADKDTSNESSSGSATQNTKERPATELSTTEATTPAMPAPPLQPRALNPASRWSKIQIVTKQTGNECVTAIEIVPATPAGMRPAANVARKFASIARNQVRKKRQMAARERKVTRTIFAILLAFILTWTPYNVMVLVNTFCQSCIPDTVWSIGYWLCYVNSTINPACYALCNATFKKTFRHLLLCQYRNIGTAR
Method in brief: (§1)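 Two modes: direct compound addition for agonism, or 15 min compound pre-incubation (or co-application) before carbachol at EC80 for inhibition. Calcium signal from Fluo-3 AM or Calcium 3 dye in CHO cells, 1 mM probenecid, pH 7.4, read 60 sec at 488/540 nm; DMSO 0.5% final.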

[2] = biological target: T2, M1 muscarinic receptor (Homo sapiens, UniProt P11229); assay: Functional mobilization of intracellular calcium (FLIPR) in M1-CHO cells; assay type: cell-based; settings: Table 4; for Emax: 100% efficacy is the maximum response obtained with the Carbachol control; for M1 Activity: modulating M1 receptor
T2 construct: expressed in transfected cells; host or cells: CHO (M1-CHO)
T2 sequence (P11229 1-460): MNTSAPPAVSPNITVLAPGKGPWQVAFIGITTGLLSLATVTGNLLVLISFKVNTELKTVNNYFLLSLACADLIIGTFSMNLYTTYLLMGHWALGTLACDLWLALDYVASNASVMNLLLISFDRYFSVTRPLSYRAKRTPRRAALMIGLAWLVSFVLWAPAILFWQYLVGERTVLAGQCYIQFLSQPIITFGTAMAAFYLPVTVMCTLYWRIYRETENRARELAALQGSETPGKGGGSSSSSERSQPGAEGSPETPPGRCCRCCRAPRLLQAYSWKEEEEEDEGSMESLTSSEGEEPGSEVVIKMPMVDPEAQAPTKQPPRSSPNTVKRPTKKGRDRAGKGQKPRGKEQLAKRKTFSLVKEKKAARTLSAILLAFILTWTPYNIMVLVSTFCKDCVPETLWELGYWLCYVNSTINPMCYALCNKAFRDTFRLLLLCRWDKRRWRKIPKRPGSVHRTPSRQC
Method in brief: as §1

| Structure (SMILES) | Emax [1] [%] | M4 Activity [1] | Emax [2] [%] | M1 Activity [2] |
| --- | --- | --- | --- | --- |
| CCOC(=O)N1CC[C@@H](CN2CCC3(CC2)CN(C(C)=O)c2cccc(C)c23)C1 [compound 502] | 25 to 100 | xx (activity was measured to be between 2.0 μM and 5.0 μM) | 25 to 100 | xxx (activity was measured to be less than 2.0 μM) |
| CCOC(=O)N1C2CCC1CC(N1CCC3(CC[C@H](NC(=O)N(C)C)c4ccccc43)CC1)C2 (stereo partly shown) [compound 503] | 25 to 100 | xxx (activity was measured to be less than 2.0 μM) | 25 to 100 | xxx (activity was measured to be less than 2.0 μM) |
| CC(=O)N[C@H]1CCC2(CCN(C3CC(C)(C)CC(C)(C)C3)CC2)c2ccccc21 [compound 504] | < 25 | x (activity was measured to be greater than 5.0 μM) | < 25 | x (activity was measured to be greater than 5.0 μM) |
| CC(=O)N1CC2(CCN(C3CCN(c4cnccn4)CC3)CC2)c2ccccc21 [compound 505] | 25 to 100 | xxx (activity was measured to be less than 2.0 μM) | 25 to 100 | xxx (activity was measured to be less than 2.0 μM) |
| CC(=O)N[C@@H]1CCC2(CCN([C@@H]3C[C@H]4CC[C@@H]3C4)CC2)c2ccccc21 [compound 506] | 25 to 100 | xx (activity was measured to be between 2.0 μM and 5.0 μM) | < 25 | x (activity was measured to be greater than 5.0 μM) |
| CCCOC(=O)N1C2CCC1CC(N1CCC3(CC1)CN(C(C)=O)c1ccccc13)C2 (stereo not shown) [compound 507] | 25 to 100 | xxx (activity was measured to be less than 2.0 μM) | 25 to 100 | xxx (activity was measured to be less than 2.0 μM) |
| C/C=C/C(=O)N1CC2(CCN(C3CCN(C(=O)OCC)CC3)CC2)c2cc(F)ccc21 [compound 508] | 25 to 100 | xxx (activity was measured to be less than 2.0 μM) | 25 to 100 | xxx (activity was measured to be less than 2.0 μM) |
| CCOC(=O)N1CCC(N2CCC3(CC2)CN(C(C)=O)c2c(C)cccc23)CC1 [compound 509] | 25 to 100 | x (activity was measured to be greater than 5.0 μM) | 25 to 100 | xx (activity was measured to be between 2.0 μM and 5.0 μM) |
| CCCOC(=O)N1CC[C@H](CN2CCC3(CC2)CN(C(=O)N(C)C)c2ccc(F)cc23)C1 [compound 510] | 25 to 100 | xxx (activity was measured to be less than 2.0 μM) | 25 to 100 | xxx (activity was measured to be less than 2.0 μM) |
| COc1cc2c(cc1OC)C1(CCN(CC3CCCCC3)CC1)C[C@@H]2NC(C)=O [compound 511] | < 25 | x (activity was measured to be greater than 5.0 μM) | < 25 | x (activity was measured to be greater than 5.0 μM) |
| COC1CCCCC1N1CCC2(CC1)CN(C(C)=O)c1ccc(F)cc12 (stereo not shown) [compound 512] | < 25 | x (activity was measured to be greater than 5.0 μM) | < 25 | x (activity was measured to be greater than 5.0 μM) |
| CCOC(=O)N1CCC(N2CCC3(CC2)CN(C2CCC4(CC2)OCCO4)c2ccccc23)CC1 [compound 513] | 25 to 100 | xxx (activity was measured to be less than 2.0 μM) | 25 to 100 | xxx (activity was measured to be less than 2.0 μM) |
| CC(=O)N[C@H]1CCC2(CCN(CC3CC3)CC2)c2ccccc21 [compound 514] | 25 to 100 | x (activity was measured to be greater than 5.0 μM) | 25 to 100 | xx (activity was measured to be between 2.0 μM and 5.0 μM) |
| CC#CC(C)OC(=O)N1C2CCC1CC(N1CCC3(CC1)CN(C(C)=O)c1ccccc13)C2 (stereo not shown) [compound 515] | 25 to 100 | xxx (activity was measured to be less than 2.0 μM) | 25 to 100 | xxx (activity was measured to be less than 2.0 μM) |
| C#CCOC(=O)N1C2CCC1CC(N1CCC3(CC1)CN(C(C)=O)c1ccccc13)C2 (stereo not shown) [compound 516] | 25 to 100 | xxx (activity was measured to be less than 2.0 μM) | 25 to 100 | xxx (activity was measured to be less than 2.0 μM) |
| CCOC(=O)N1CCC(N2CCC3(CC2)CN(c2ccncc2)c2ccc(F)cc23)CC1 [compound 517] | 25 to 100 | xxx (activity was measured to be less than 2.0 μM) | 25 to 100 | xxx (activity was measured to be less than 2.0 μM) |
| CCCOC(=O)N1CC[C@H](CN2CCC3(CC2)CN(C(C)=O)c2ccccc23)C1 [compound 518] | < 25 | x (activity was measured to be greater than 5.0 μM) | < 25 | x (activity was measured to be greater than 5.0 μM) |
| O=C(N[C@H]1CC2(CCN(C[C@@H]3C[C@H]4C=C[C@H]3C4)CC2)c2ccccc21)c1ccoc1 [compound 519] | < 25 | x (activity was measured to be greater than 5.0 μM) | 25 to 100 | xxx (activity was measured to be less than 2.0 μM) |
| CN(C)C(=O)N1CC2(CCN(C3CCN(C(=O)[C@H]4CCCO4)CC3)CC2)c2cc(F)ccc21 [compound 520] | < 25 | x (activity was measured to be greater than 5.0 μM) | 25 to 100 | x (activity was measured to be greater than 5.0 μM) |
| COc1cc2c(cc1OC)C1(CCN(C3CCCCC3)CC1)C[C@@H]2NC(C)=O [compound 521] | < 25 | x (activity was measured to be greater than 5.0 μM) | < 25 | x (activity was measured to be greater than 5.0 μM) |
| CCOC(=O)N1CCC(N2CCC3(CC2)CN(C(=O)C(=O)CC)c2ccc(F)cc23)CC1 [compound 522] | 25 to 100 | xxx (activity was measured to be less than 2.0 μM) | > 100 | xxx (activity was measured to be less than 2.0 μM) |
| O=C(N[C@H]1CC2(CCN(C3C[C@H]4CC[C@@H]3C4)CC2)c2ccccc21)N1CCCCC1 (stereo partly shown) [compound 525] | 25 to 100 | xxx (activity was measured to be less than 2.0 μM) | < 25 | x (activity was measured to be greater than 5.0 μM) |
| CC#CCOC(=O)N1CCC(N2CCC3(CC2)CN(C(C)=O)c2cccc(C)c23)CC1 [compound 526] | < 25 | x (activity was measured to be greater than 5.0 μM) | 25 to 100 | xxx (activity was measured to be less than 2.0 μM) |
| CCCC#CCOC(=O)N1CC[C@@H](CN2CCC3(CC2)CN(C(=O)N(C)C)c2ccc(F)cc23)C1 [compound 527] | 25 to 100 | xxx (activity was measured to be less than 2.0 μM) | 25 to 100 | xxx (activity was measured to be less than 2.0 μM) |
| CN(C)C(=O)N1CC2(CCN(C3CCN(c4cncnc4)CC3)CC2)c2cc(F)ccc21 [compound 528] | 25 to 100 | xxx (activity was measured to be less than 2.0 μM) | 25 to 100 | xx (activity was measured to be between 2.0 μM and 5.0 μM) |
| CCOC(=O)N1CCC(CN2CCC3(CC2)CN(C(C)=O)c2c(C(F)(F)F)cccc23)CC1 [compound 529] | 25 to 100 | xx (activity was measured to be between 2.0 μM and 5.0 μM) | 25 to 100 | x (activity was measured to be greater than 5.0 μM) |
| CC(=O)N[C@H]1CC2(CCN(Cc3ccoc3)CC2)c2ccccc21 [compound 530] | < 25 | x (activity was measured to be greater than 5.0 μM) | < 25 | x (activity was measured to be greater than 5.0 μM) |
| CN(C)C(=O)N1CC2(CCN(C3CCN(C(=O)c4cnccn4)CC3)CC2)c2cc(F)ccc21 [compound 531] | < 25 | x (activity was measured to be greater than 5.0 μM) | < 25 | x (activity was measured to be greater than 5.0 μM) |
